The source of these data is patent US12377112B2, “Methods of treating neurocognitive disorders, chronic pain and reducing inflammation” (priority 2019, dated 2025).

In this test the test system is healthy subjects. The test is described as follows: Phase 1 study: Positive and Negative Affect Schedule (PANAS). It counts as in vivo, human. Particulars: for PANAS-Negative, change from baseline, LS mean / PANAS-Positive, change from baseline, LS mean: Post-Treatment Day 0. The text has this:
In some embodiments, the Positive and Negative Affect Schedule (PANAS) is used to evaluate the safety and/or efficacy of psilocybin. The PANAS measures the acute emotional drug effects and comprises 2 mood scales that measure positive and negative affect. Positive affect refers to the propensity to experience positive emotions and interact with others positively. Negative affect involves experiencing the world in a more negative way. Subjects respond to 10 questions associated with negative affect and 10 questions associated with positive affect. The questions are scaled using a 5-point scale that ranges from “slightly or not at all (1)” to “extremely (5)”. A total higher score on the positive affect questions indicates more of a positive effect while a lower score on the negative affect questions indicates less of a negative affect. In some embodiments, after treating according to the methods of the disclosure, a subject experiences a decrease in negative affect score of the PANAS, between about 5% and about 100%, for example about 5%, about 10%, about 15%, about 20%, about 25%, about 30%, about 35%, about 40%, about 45%, about 50%, about 55%, about 60%, about 65%, about 70%, about 75%, about 80%, about 85%, about 90%, about 95%, or about 100%, compared to prior to treatment. In some embodiments, after treating according to the methods of the disclosure, a subject experiences an increase in positive affect score of the PANAS, between about 5% and about 100%, for example about 5%, about 10%, about 15%, about 20%, about 25%, about 30%, about 35%, about 40%, about 45%, about 50%, about 55%, about 60%, about 65%, about 70%, about 75%, about 80%, about 85%, about 90%, about 95%, or about 100%, about 110%, about 120%, about 130%, about 140%, about 150%, about 160%, about 170%, about 180%, about 190%, about 200%, about 210%, about 220%, about 230%, about 240%, about 250%, about 260%, about 270%, about 280%, about 290%, or about 300%, or more, compared to prior to treatment.
The effects of psilocybin usually started about 20 to 30 min after administration, becoming most intense in the first 90 to 120 min and gradually subsiding in about 5 to 6 hours. The subjects were asked to remain in the room for the duration of the session regardless of the intensity of the effects, preferably lying down and mostly silent unless they have a concern or need to communicate a discomfort or seek reassurance from the therapist, or use the restroom. A light meal and fruit were available for the subject after the session. After the acute effects of study drug administration had subsided, all subjects were assessed for safety and asked to complete the following assessments: PANAS and 5D-ASC. Medications used, if any, during the study drug administration session, and adverse events were recorded. The subjects also discussed their psilocybin experience with their therapist. The subject was discharged 6 to 8 hours post dose when, in the opinion of the investigator, the acute effects of psilocybin were resolved. After the acute effects of study drug administration subsided, subjects returned home accompanied by a family member, friend, or chaperone. The therapists checked with the subjects by phone at the end of the day to ensure that the subject arrived home safely.
The Positive and Negative Affects Schedule (PANAS) score was also evaluated to measure the effect of psilocybin.

With `CN(C)CCc1c[nH]c2cccc(OP(=O)(O)O)c12` [Psilocybin, psilocybin], where the note is “25 mg, baseline to day of dosing”, the “PANAS negative affect, mean increase” value is on record as 1.3. For the same compound, the “PANAS-Negative, change from baseline, LS mean” value is given as −0.6 (Psilocybin 10 mg) and 1.3 (Psilocybin 25 mg). In addition, the “PANAS-Positive, change from baseline, LS mean” value runs as follows: (Psilocybin 10 mg) 0.7; (Psilocybin 25 mg) −0.4.
